Data on 13 molecules can be found in patent US7973050B2, “Enantiomeric compounds with antibacterial activity” (Crestone, Inc., priority 2006, dated 2011).

Experiment [1] relates to C. difficile clinical isolates (spore production). The experiment in a line: C. difficile sporulation on agar with subMIC drug. It is filed as cell-based, Clostridium difficile. The following applies: 96 hours.
The subject of experiment [2] is C. difficile. The experiment in a line: MIC90 against C. difficile clinical isolates, agar dilution (CLSI). It is filed as cell-based. The following applies: Clostridioides difficile, read-out: MIC90 against Clostridium difficile.
The target in experiment [3] is Clostridium difficile MetRS (Clostridioides difficile, UniProt Q181D9, C642S). The experiment in a line: C. difficile MetRS inhibition (tRNA charging SPA assay). The class given is biochemical. As to the method: Compounds of the present invention were assayed to determine their ability to inhibit MetRS. Assays were performed as follows:
Each reaction was started by adding 20 μl appropriately diluted pure enzyme (pre-incubated with inhibitor) to 25 μl reaction mix for 10 min at room temperature. The reaction is terminated by the addition of 150 μl 167 mM sodium citrate, pH 2.15 containing phosphodiesterase (PDE) SPA beads (0.833 mg/ml). The binding of the radiolabelled product to the bead brings the isotope into close enough proximity to allow radiation from the tritium to excite the scintillant within the bead. Any unbound radiolabel is not close enough to the scintillant to allow this energy transfer, so no signal is generated. Following termination of the reaction, plates are spun at 2500 rpm for 5 min in a Mistral 3000E plate centrifuge (or alternatively allowed to stand for 1 hour). The assay is conducted in 96-well Optiplates (Packard). Plates are counted on a TopCount. (Packard 96 well counter).
Mixed E. coli MRE 600 tRNA and ATP were purchased from Boehringer-Mannheim, L-[methyl-^3H]methionine and phosphodiesterase scintillation proximity (SPA) beads from Amersham Pharmacia Biotech and other reagents from Sigma.

Experiment [4] has as its system C. difficile. The experiment is described as follows: C. difficile-infected hamster survival study. The class given is in vivo. As to the method: Animal studies were performed to determine the efficacy of MetRS inhibitors for treating C. difficile-infections. The MetRS inhibitors tested were 5-[3-((R)-6,8-Dibromo-chroman-4-ylamino)-propylamino]-4H-thieno[3,2-b]pyridine-7-one (both racemic mixture and the R enantiomer) and 5-[3-((R)-8-Bromo-6-chloro-chroman-4-ylamino)-propylamino]-4H-thieno[3,2-b]pyridin-7-one. Also tested was 2-(3-{3,5-Dibromo-2-[2-(4-methyl-thiazol-5-yl)-ethoxy]-benzylamino}-propylamino)-1H-quinolin-4-one.
Results were compared to C. difficile-infected hamsters treated with the conventional antibiotic, vancomycin. Infected hamsters were treated with either a solution or suspension of a MetRS inhibitor at 5 to 50 mg/kg or vancomycin at 2.5, 5 or 25 mg/kg. There were eight hamsters per group with the final endpoint of the experiment being survival. Expired hamsters were examined for GI condition.

The subject of another experiment is rat MetRS. The experiment in a line: Mammalian MetRS inhibition (selectivity). It is filed as biochemical. The following applies: mammalian enzyme.
[5] abbreviates: agar dilution, clinical isolates, 24 hours at 35° C. anaerobic, range stated for the group.
Setting [6] is: range stated for the group of listed examples, read-out: Ki, inhibition of Clostridium difficile MetRS.

Converted amounts (≈) assume the structure as drawn. Counter-ions that a name gives are not always drawn. Like-named read-outs stand apart in the source and are kept apart here. Where only a bound is given, the exact number is not on record here.

Clostridium difficile MetRS, sequence (Q181D9 2-645 C642S): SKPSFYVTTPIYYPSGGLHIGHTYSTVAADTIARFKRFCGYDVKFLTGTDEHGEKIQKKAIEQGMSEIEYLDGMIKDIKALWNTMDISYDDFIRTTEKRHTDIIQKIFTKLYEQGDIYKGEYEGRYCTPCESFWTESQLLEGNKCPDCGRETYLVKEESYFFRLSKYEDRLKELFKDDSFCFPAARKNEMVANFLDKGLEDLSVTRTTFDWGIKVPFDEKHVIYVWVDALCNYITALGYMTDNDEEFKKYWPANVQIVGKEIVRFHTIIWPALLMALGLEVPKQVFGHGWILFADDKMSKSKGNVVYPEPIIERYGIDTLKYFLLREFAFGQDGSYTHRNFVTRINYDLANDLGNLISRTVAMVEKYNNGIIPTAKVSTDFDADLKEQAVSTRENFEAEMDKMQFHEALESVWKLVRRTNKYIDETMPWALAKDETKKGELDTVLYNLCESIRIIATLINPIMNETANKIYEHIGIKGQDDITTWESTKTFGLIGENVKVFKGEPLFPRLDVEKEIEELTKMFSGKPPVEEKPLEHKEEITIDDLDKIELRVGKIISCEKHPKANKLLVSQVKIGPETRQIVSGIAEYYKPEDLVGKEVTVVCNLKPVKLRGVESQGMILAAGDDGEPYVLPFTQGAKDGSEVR

As a reminder, the MIC90 is an inhibitory concentration at the 90% level, which refers to growth in some studies and to a panel of isolates in others. As usually defined, the Ki is a dissociation constant, usually derived from enzyme kinetics or from competition with a known ligand. Regarding `O=c1cc(NCCCN[C@@H]2CCOc3c(Br)cc(Br)cc32)[nH]c2ccsc12` (single isomer, unassigned) [Example 2, di-hydrochloride], in experiment [1] (all strains, 0.25×MIC), the “spores (ratio of spores to total cells) at 0.25×MIC” value is under 2%. Further, the “spores (ratio of spores to total cells) at 0.5×MIC” value in experiment [1] (all strains, 0.5×MIC) is listed as under 1%. Further, the “effect on spore production, in words” value in experiment [1] (subMIC concentrations) is recorded as “effective in preventing vegetative cells of C. difficile from forming spores”. The MIC90 with C. difficile [2] (setting [5]) was 0.25 to 4 µg/mL. In experiment [3], the Ki is 0.015 to 0.025 nM. For the same molecule, the “efficacy (survival) in infected hamsters, in words” value in the experiment on C. difficile [4] (MetRS inhibitor at 5 to 50 mg/kg, solution or suspension) was “best efficacy”. Moreover, in the experiment with rat MetRS, the “inhibition of mammalian (rat) MetRS” value is given as “no inhibition”.

Turning to `O=c1cc(NCCCN[C@H]2CCOc3c(Br)cc(Br)cc32)[nH]c2ccsc12` (single isomer, unassigned) [Example 3, di-hydrochloride], the inhibition constant (Ki) in experiment [3] is 24 to 80 nM.

As to `O=c1cc(NCCCN[C@@H]2CCOc3c(Br)cc(Cl)cc32)[nH]c2ccsc12` (single isomer, unassigned) [Example 4, di-hydrochloride], the MIC90 with C. difficile [2] (24 h) lay within 0.25 to 4 µg/mL. Besides, in experiment [3], the Ki was 0.015 to 0.025 nM. Further, in the experiment with rat MetRS, the “inhibition of mammalian (rat) MetRS” value is listed as “no inhibition”.

Take `O=c1cc(NCCCN[C@H]2CCOc3c(Br)cc(Cl)cc32)[nH]c2ccsc12` (single isomer, unassigned) [Example 5, di-hydrochloride]: the Ki in experiment [3] fell in the range of 24 to 80 nM.

In the case of `O=c1cc(NCCCN[C@@H]2CCOc3c(Br)cc(Br)cc32)[nH]c2ccccc12` (single isomer, unassigned) [Example 6, di-hydrochloride], the MIC90 in the experiment with C. difficile [2] (24 h) is 0.25 to 4 µg/mL. The molecule further showed a Ki in experiment [3] of 0.015 to 0.025 nM. In the experiment on rat MetRS, the “inhibition of mammalian (rat) MetRS” value is “no inhibition”.

On to `O=c1cc(NCCCN[C@H]2CCOc3c(Br)cc(Br)cc32)[nH]c2ccccc12` (single isomer, unassigned) [Example 7, di-hydrochloride], for which the Ki in experiment [3] lay in the range of 24 to 80 nM.

Regarding `O=c1cc(NCCCN[C@@H]2CCNc3c(Br)cc(Br)cc32)[nH]c2ccsc12` (single isomer, unassigned) [Example 8, tri-hydrochloride], the MIC90 in the experiment on C. difficile [2] (24 h) fell in the range of 0.25 to 4 µg/mL. Besides, the Ki in experiment [3] is 0.015 to 0.025 nM. In addition, the “inhibition of mammalian (rat) MetRS” value with rat MetRS was “no inhibition”.

Turning to `O=c1cc(NCCCN[C@H]2CCNc3c(Br)cc(Br)cc32)[nH]c2ccsc12` (single isomer, unassigned) [Example 9, tri-hydrochloride], the Ki in experiment [3] lay within 24 to 80 nM.

On to `O=c1cc(NCCCN[C@@H]2CCCc3c(Br)cc(Br)cc32)[nH]c2ccsc12` [Example 10, 5-[3-((R)-5,7-Dibromo-1,2,3,4-tetrahydro-naphthalen-1-ylamino)-propylamino]-4H-thieno[3,2-b]pyridine-7-one], for which the MIC90 with C. difficile [2] (setting [5]) was 0.25 to 4 µg/mL (≈ 0.489 to 7.82 µM). In addition, the inhibition constant (Ki) in experiment [3] (setting [6]) was in the range of 0.015 to 0.025 nM. Further, the “inhibition of mammalian (rat) MetRS” value in the experiment with rat MetRS is on record as “no inhibition”.

As to `O=c1cc(NCCCN[C@@H]2COc3c(Br)cc(Br)cc32)[nH]c2ccsc12` [Example 11, 5-[3-((S)-5,7-Dibromo-2,3-dihydro-benzofuran-3-ylamino)-propylamino]-4H-thieno[3,2-b]pyridine-7-one], the MIC90 in the experiment on C. difficile [2] (setting [5]) fell in the range of 0.25 to 4 µg/mL (≈ 0.501 to 8.01 µM). Further, the inhibition constant (Ki) in experiment [3] (setting [6]) fell in the range of 0.015 to 0.025 nM. In the experiment on rat MetRS, the “inhibition of mammalian (rat) MetRS” value is given as “no inhibition”.

Consider `O=c1cc(NCCCN[C@H]2COc3c(Br)cc(Br)cc32)[nH]c2ccsc12` [Example 12, 5-[3-((R)-5,7-Dibromo-2,3-dihydro-benzofuran-3-ylamino)-propylamino]-4H-thieno[3,2-b]pyridine-7-one], for which, in experiment [3] (setting [6]), the inhibitory constant (Ki) lay within 24 to 80 nM.

For `Cc1ncc([N+](=O)[O-])n1CCO` [metronidazole, reference compound], in experiment [1] (all tested strains, subMIC), the “spores after exposure to subMIC concentrations” value is recorded as “up to 100%”.

As for `CN[C@H](CC(C)C)C(=O)N[C@H]1C(=O)N[C@@H](CC(N)=O)C(=O)N[C@H]2C(=O)N[C@H]3C(=O)N[C@H](C(=O)N[C@H](C(=O)O)c4cc(O)cc(O)c4-c4cc3ccc4O)[C@H](O)c3ccc(c(Cl)c3)Oc3cc2cc(c3O[C@@H]2O[C@H](CO)[C@@H](O)[C@H](O)[C@H]2O[C@H]2C[C@](C)(N)[C@H](O)[C@H](C)O2)Oc2ccc(cc2Cl)[C@H]1O` [vancomycin, reference compound], in the experiment on C. difficile [4] (C. difficile-infected hamsters, vancomycin at 2.5, 5 or 25 mg/kg), the “survival on Day 28 (vancomycin comparator)” value is 0-10%.
